From US11485762B2, “Compositions and methods for inhibition of L-plastin activity in osteoclasts to reduce bone loss” (University of Maryland, Baltimore, priority 2017, dated 2022)

Legend:
[1] = tested on: osteoclasts derived from RAW cells; test: NSZs and sealing ring formation in osteoclasts derived from RAW cells; assay type: cell-based
Excerpt: C57/BL6 mice were used for osteoclast preparation as described previously (Chellaiah et al., 2000, J. Cell Biol., 148: 665.678; Chellaiah et al., 2007, J. Biol. Chem., 282: 10104-10116). Osteoclasts were generated in vitro using mouse bone marrow (BM) cells as described (Chellaiah et al., 2000, J. Cell Biol., 148: 665-678; Chellaiah et al., 2007, J. Biol. Chem., 282: 10104.10116). Osteoclasts differentiated from RAW 264.7 cells were also used to corroborate a few of the observations made with osteoclasts derived from mouse BM cells. Osteoclasts from RAW 264.7 cells were generated as described previously (Gupta et al., 2003, J Bone Miner Res 18: 669-685). Conditions were established that offer >90% population of mature multinucleated osteoclasts from both mouse bone marrow and RAW cells.
After cells were kept in the serum-free α-MEM medium for two hours, LPL peptides of interest were added to a final concentration of 100-150 nM to cells in serum-free media (Chellaiah et al, 2000, J. Biol. Chem., 275: 11993-12002). Osteoclasts transduced with peptides of interest and added with bone particles in the presence of TNF-α for 3-4 hours or 12-14 hours were used for lysate preparations. Cells plated on coverslips and treated with peptides were used for actin staining to detect podosomes. […]

[2] = tested on: integrin αv; test: Localization of integrin αv in NSZs (immunostaining with LPL and integrin αv antibody); assay type: cell-based, mouse; conditions: 3, 6 and 10 hours
Experimental: After cells were kept in the serum-free α-MEM medium for two hours, LPL peptides of interest were added to a final concentration of 100-150 nM to cells in serum-free media (Chellaiah et al, 2000, J. Biol. Chem., 275: 11993-12002). Osteoclasts transduced with peptides of interest and added with bone particles in the presence of TNF-α for 3-4 hours or 12-14 hours were used for lysate preparations. Cells plated on coverslips and treated with peptides were used for actin staining to detect podosomes. After transduction for 30 min., osteoclasts were re-plated on dentine slices with respective LPL peptide and TNF-α for 3-6 hours or 12-14 hours. These cells were used for Actin staining with rhodamine-phalloidin or immunostaining analyses (Chellaiah et al., 2000, J. Biol. Chem., 275: 11993-12002; Chellaiah et al., 2000, J. Cell. Biol., 148: 665-678; Chellaiah et al., 2003, J Biol Chem 278: 29086-29097).
Osteoclasts were fixed with 3% paraformaldehyde for 20 minutes and permeabilized with 0.1% Triton X-100 in PBS for 5 minutes. Subsequently, osteoclasts were stained with a primary (HA or integrin αv) and secondary antibody as described (Chellaiah et al., 2003, J Biol Chem 278: 29086-29097). Actin staining was done with rhodamine-phalloidin as described (Chellaiah et al., 2000, J. Biol. Chem., 275: 11993-12002; Chellaiah et al., 2000, J. Cell Biol., 148: 665-678). […]

MARGSVSDEE [Peptide P1, TAT-fused small molecular weight (10aa) amino-terminal LPL peptide, unsubstituted (S5S7)]
formation of NSZs [1]: significant decrease | formation of sealing rings [1]: significant decrease | localization of integrin αv in NSZs / colocalization with LPL [2]: abrogated
